Measurements taken from patent publication US12344612B2, “Bicyclic ketone compounds and methods of use thereof” (Genentech, Inc., priority 2019, dated 2025).

Target: human RIP1 kinase domain (2-375) (Homo sapiens (Human), UniProt Q13546)
Assay: RIP1 kinase inhibition biochemical assay (Transcreener ADP, fluorescence polarization)
Conditions: apparent Ki (Morrison tight-binding fit); 50 nM enzyme, 50 μM ATP, 2 hours incubation
Procedure: RIP1 Kinase Inhibition Assays (Biochemical Assay)
The compounds of the present invention were tested for their capacity to inhibit RIP1K activity as described below.
The ability of the receptor interacting protein kinase (RIPK1) to catalyze the hydrolysis of adenosine-5′-triphosphate (ATP) is monitored using the Transcreener ADP (adenosine-5′-diphosphate) assay (BellBrook Labs). Purified human RIP1 kinase domain (2-375) (50 nM) derived from a baculovirus-infected insect cell expression system is incubated with test compounds for 2 hours in 50 mM Hepes buffer (pH 7.5) containing 30 mM MgCl2, 1 mM dithiothreitol, 50 μM ATP, 0.002% Brij-35, and 0.5% dimethyl sulfoxide (DMSO). Reactions are quenched by the addition of 1× Bell Brooks Stop buffer B (20 mM Hepes (ph7.5), 40 mM ethylenediaminetetraacetic acid and 0.02% Brij-35) containing an additional 12 mM EDTA and 55 ug/mL ADP2 antibody and 4 nM ADP-AlexaFluor® 633 tracer. The tracer bound to the antibody is displaced by the ADP generated during the RIP1K reaction, which causes a decrease in fluorescence polarization that is measured by laser excitation at 633 nm with a FP microplate reader M1000. Fractional activity was plotted against test article concentration. Using Genedata Screener software (Genedata; Basel, Switzerland), the data were fit to the tight-binding apparent inhibition constant (Ki^app) Morrison equation [Williams, J. W. and Morrison, J. F. (1979) The kinetics of reversible tight-binding inhibition. Methods Enzymol 63: 437-67]. The following equation was used to calculate fractional activity and Ki^app:
[formula] where [E]T and [I]T are the total concentrations of active enzyme and test article, respectively.
Exemplary compounds of the present invention are provided in Table 1 along with their physiochemical characterization and in vitro RIP1 kinase inhibitory activity data. “Method” in the first column of each table refers to the synthetic method(s) used to prepare each compound as shown in the Examples above.

human RIP1 kinase domain (2-375), sequence (Q13546 2-375): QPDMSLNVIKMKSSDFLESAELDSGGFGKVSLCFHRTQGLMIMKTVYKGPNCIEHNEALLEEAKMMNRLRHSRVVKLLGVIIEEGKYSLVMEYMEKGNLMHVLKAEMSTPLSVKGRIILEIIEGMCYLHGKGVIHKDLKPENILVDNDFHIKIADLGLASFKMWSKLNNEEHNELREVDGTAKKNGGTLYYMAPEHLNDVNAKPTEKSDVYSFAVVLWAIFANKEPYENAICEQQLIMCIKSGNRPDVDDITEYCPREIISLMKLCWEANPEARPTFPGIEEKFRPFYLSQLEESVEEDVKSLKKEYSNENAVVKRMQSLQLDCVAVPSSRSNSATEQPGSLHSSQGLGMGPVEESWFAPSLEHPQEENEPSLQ

Row | Structure (SMILES) | Ki [nM]
1 | O=C(c1nc2n(n1)[C@H](c1cncc(F)c1)C[C@@H]2F)C1CC1 (single isomer, unassigned) [Example 1] | 9
2 | CCC(=O)c1nc2n(n1)[C@H](c1cnn(C)c1)C[C@@H]2F (single isomer, unassigned) [Example 6] | 25
3 | CC(C)(CO)C(=O)c1nc2n(n1)[C@H](c1ccccc1)C[C@@H]2F [Example 4, 3-hydroxy-2,2-dimethyl-1-((5S,7S)-7-fluoro-5-phenyl-6,7-dihydro-5H-pyrrolo[1,2-b][1,2,4]triazol-2-yl)propan-1-one] | 31
4 | N#Cc1cccc([C@@H]2C[C@H](F)c3nc(C(=O)C4CC4)nn32)c1 (single isomer, unassigned) [Example 8] | 28
5 | O=C(c1nc2n(n1)[C@H](c1cccc(Cl)c1)C[C@@H]2F)C1CC1 (single isomer, unassigned) [Example 9] | 6.5
6 | CC(C)(COC(F)F)C(=O)c1nc2n(n1)[C@H](c1ccccc1)C[C@@H]2F [Example 5, 3-(difluoromethoxy)-2,2-dimethyl-1-((5S,7S)-7-fluoro-5-phenyl-6,7-dihydro-5H-pyrrolo[1,2-b][1,2,4]triazol-2-yl)propan-1-one] | < 5
7 | O=C(c1nc2n(n1)[C@@H](c1cncc(F)c1)C[C@H]2F)C1CC1 (single isomer, unassigned) [Example 2] | > 10000
8 | CC1(C)OCC2CC21C(=O)c1nc2n(n1)[C@H](c1ccccc1)C[C@@H]2F (mixture of isomers) [Example 3, (2,2-dimethyl-3-oxabicyclo[3.1.0]hexan-1-yl)-[rac-(5S,7S)-7-fluoro-5-phenyl-6,7-dihydro-5H-pyrrolo[1,2-b][1,2,4]triazol-2-yl]methanone] | 84
9 | CC(=O)N1CC(C(=O)c2nc3n(n2)[C@H](c2ccccc2)C[C@@H]3F)C1 (single isomer, unassigned) [Example 7] | 130
